Converted amounts (≈) assume the structure as drawn.
Biological target: T1, α-glucosidase (sucrase) existing in small intestine of rat (Rattus norvegicus, UniProt P23739)
T1 construct: the supernatant liquid thereof was used as an enzyme solution (sucrase); from tissue; host or cells: rat small intestinal mucous membrane (brush border membrane)
Experiment: Inhibition of rat small intestinal α-glucosidase (sucrase), IC50
Type: biochemical
Conditions: partially purified rat small intestinal sucrase, 5 mM sucrose, 37° C. for 60 minutes
Protocol: As to the α-glucosidase, a sucrase solution which was partially purified from small intestinal mucous membrane (brush edge membrane) of rat was used. Namely, the mucous membrane of small intestine was exfoliated using a slide glass, homogenized at 4° C. for 5 minutes with a phosphate buffer and subjected to an ultrasonic treatment for 5 minutes. The resulting solution of smashed mucous membrane was centrifuged and the supernatant liquid thereof was used as an enzyme solution (sucrase). A 5 mM sucrose solution was used as a substrate, an enzyme solution and a predetermined amount of a 1-deoxynojirimycin solution or a mulberry extract were added and the reaction was carried out at 37° C. for 60 minutes and then stopped by a treatment at 100° C. for 5 minutes. Amount of glucose in the reaction solution was measured by a biochemical automatic analyzer.

T1 sequence (P23739 whole entry): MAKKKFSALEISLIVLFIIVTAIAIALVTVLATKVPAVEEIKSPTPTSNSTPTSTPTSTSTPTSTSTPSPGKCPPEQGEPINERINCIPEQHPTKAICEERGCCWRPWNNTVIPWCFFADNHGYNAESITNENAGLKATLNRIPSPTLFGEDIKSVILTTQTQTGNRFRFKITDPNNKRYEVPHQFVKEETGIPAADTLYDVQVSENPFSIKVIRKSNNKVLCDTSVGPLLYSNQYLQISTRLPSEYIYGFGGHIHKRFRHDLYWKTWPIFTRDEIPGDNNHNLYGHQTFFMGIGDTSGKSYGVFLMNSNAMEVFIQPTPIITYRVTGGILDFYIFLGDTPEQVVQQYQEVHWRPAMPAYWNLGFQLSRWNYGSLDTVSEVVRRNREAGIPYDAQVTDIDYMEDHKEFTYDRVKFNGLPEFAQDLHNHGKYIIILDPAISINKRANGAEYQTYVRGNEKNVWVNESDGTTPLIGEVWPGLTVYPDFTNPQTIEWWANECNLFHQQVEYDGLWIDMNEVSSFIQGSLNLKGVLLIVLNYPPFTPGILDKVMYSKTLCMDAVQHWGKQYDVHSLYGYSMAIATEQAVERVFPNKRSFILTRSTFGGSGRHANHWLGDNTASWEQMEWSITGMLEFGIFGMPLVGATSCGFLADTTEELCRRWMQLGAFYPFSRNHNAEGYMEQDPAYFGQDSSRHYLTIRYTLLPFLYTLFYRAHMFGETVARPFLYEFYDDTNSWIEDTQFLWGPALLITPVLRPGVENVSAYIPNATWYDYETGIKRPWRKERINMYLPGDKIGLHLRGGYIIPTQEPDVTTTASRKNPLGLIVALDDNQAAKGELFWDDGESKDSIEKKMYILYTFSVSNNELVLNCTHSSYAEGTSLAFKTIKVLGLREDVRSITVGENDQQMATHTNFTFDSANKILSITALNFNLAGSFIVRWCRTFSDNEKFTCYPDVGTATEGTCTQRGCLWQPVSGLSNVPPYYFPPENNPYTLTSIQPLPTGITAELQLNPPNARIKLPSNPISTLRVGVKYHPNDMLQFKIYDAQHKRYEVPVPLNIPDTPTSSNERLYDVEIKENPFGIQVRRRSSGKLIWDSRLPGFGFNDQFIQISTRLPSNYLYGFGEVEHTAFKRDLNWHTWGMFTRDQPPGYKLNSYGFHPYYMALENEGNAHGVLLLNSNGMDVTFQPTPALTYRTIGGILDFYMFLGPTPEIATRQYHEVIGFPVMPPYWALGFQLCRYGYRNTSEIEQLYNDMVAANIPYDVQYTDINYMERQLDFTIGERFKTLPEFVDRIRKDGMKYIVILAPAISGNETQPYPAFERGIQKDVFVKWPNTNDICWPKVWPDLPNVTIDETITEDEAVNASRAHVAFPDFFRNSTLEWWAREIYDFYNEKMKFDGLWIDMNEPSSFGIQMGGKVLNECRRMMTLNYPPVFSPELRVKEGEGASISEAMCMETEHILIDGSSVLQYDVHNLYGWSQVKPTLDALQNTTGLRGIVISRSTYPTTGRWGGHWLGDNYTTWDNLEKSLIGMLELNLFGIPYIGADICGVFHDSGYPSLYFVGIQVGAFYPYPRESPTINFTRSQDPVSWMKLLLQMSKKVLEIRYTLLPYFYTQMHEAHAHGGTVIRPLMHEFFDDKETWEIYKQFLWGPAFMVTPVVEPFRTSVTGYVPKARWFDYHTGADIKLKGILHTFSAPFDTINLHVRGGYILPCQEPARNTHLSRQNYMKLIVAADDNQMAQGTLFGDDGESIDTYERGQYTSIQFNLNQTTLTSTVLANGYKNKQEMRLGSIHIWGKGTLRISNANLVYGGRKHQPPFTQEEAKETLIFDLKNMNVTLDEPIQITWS

**Q.** `OC[C@H]1NC[C@H](O)[C@@H](O)[C@@H]1O` [1-Deoxynojirimycin, 1-deoxynojirimycin] was tested. Which “IC50 to Sucrase” value did it give?
**A.** 0.05 µg/mL (≈ 0.306 µM)

From patent US20010018090A1, “Calorie reducing agent” (priority 1999, published 2001)
